Measured values from US9399032B2, “Methods and compositions for treating degenerative and ischemic disorders” (The General Hospital Corporation, priority 2009, dated 2016).
Where a name gives a salt, the structure may show the parent alone.

Experiments:
[1] = tested on: MCH58 fibroblasts; assay: Cellular oxygen consumption rate (OCR), extracellular acidification rate (ECAR) and lactic acid production; type: cell-based, human
Procedure: Cellular oxygen consumption and extracellular acidification assays were performed as follows. Briefly, MCH58 fibroblasts were seeded in XF24-well cell culture microplates (Seahorse Bioscience) at 30,000 cells/well in 10 mM glucose or 10 mM galactose media and incubated at 37° C./5% CO2 for ˜20 hours. Prior to the measurements, the growth medium was replaced with ˜925 μL of assay medium. The assay medium consisted of DMEM Base (Sigma Cat No D5030), 2 mM GlutaMax-1 (Gibco Cat No 350350-061), 1 mM Sodium Pyruvate (Sigma Cat No S8636), 10 mM Glucose (Sigma Cat No G8270) or Galactose (Sigma Cat No G5388), (1.85 g/L) Sodium Chloride and (15 mg/L) phenol red. The pH of the assay medium was adjusted to 7.4 with 1 N Sodium Hydroxide. The cells were incubated at 37° C. for 60 min in the assay medium prior to measurements.
(§1) The OCR and ECAR measurements on HeLa, 293, and STHdh^Q7/7 mouse striatal cells were carried out by growing them in XF24 plates at 40,000/well (HeLa) and STHdh^Q7/7 mouse striatal cells) and 60,000/well (293 cells) for ˜20 hours in their regular growth conditions. The assay medium was the same as above except that 25 mM glucose was used as the sugar source. The measurements were performed simultaneously every 7 minutes after a 2 minute mix and 2 minute wait period for MCH fibroblasts and every 6 minutes (with 2 minutes mix and 2 minute wait) for HeLa, 293, and STHdh^Q7/7 mouse striatal cells. Three baseline measurements were recorded prior to the addition of oligomycin (Biochemika 75352), Antimycin (Sigma A8674), roetnone (Sigma R8875), carbonyl cyanide 3-chlorophenylhydrazone (Sigma C2759) and meclizine hydrochloride (MSDiscovery 01500376). 50 mM stock solution of meclizine was made in DMSO, which was diluted to specified concentration in assay medium and its pH was adjusted to 7.4 by 1N Sodium hydroxide solution. The measurements were carried out at 33° C. for mouse striatal cells but for all other cell types measurement were done at 37° C.

[2] = tested on: human skin fibroblasts, mouse striatal cells, human embryonic kidney cells, and Hela cells; assay: OCR and ECAR in other cell types; type: cell-based; conditions: 50 μM, 200 minutes
Procedure: as §1

[3] = tested on: Mitochondria isolated from C57BL/6 mouse kidneys; assay: Bioenergetics of isolated mitochondria; type: biochemical; conditions: acute addition
Procedure: Mootha et al., Am J Physiol 272:[…] (1997). State 2 respiration was initiated with the addition of 2.5 mM glutamate and 2.5 mM malate. State 3 respiration was initiated with the addition of 50 nmoles ADP. Uncoupled respiration was initiated with the addition of 5 μM CCCP (Sigma Cat No C2759). O2 consumption was monitored with a Fiber Optic Oxygen sensor probe from Ocean Optics, and NADH (endogenous, 370±7 nm excitation, 440±4 nm emission) and membrane potential (1.25 μM TMRM, 546±7 nm excitation, 590±4 nm emission) were measured with a Perkin-Elmer LS50B fluorimeter. A representative trace is shown from 6 independent experiments. 1M stock of phosphoethanolamine (Sigma P0503) was made in sterile water and pH was adjusted to 7.4 by 1N potassium hydroxide solution.

[4] = tested on: Trypanosoma brucei; assay: Effectiveness against Trypanosoma brucei; type: cell-based; conditions: kills Trypanosoma brucei; read-out: ED50 (the source's name)

**Q.** For `Cc1cccc(CN2CCN(C(c3ccccc3)c3ccc(Cl)cc3)CC2)c1` (racemic) [Meclizine, meclizine hydrochloride], which “Km for switching energy metabolism versus published Km for blocking H1 receptors” value [1] is on record?
**A.** about a hundred fold higher

**Q.** And the lactic acid production ([1]; requiring several hours to develop)?
**A.** increased lactic acid production in a dose-dependent manner

**Q.** And the oxygen consumption rates ([1]; whole cell bioenergetic kinetic assays)?
**A.** reduced oxygen consumption rates

**Q.** What about the “oxygen consumption and extracellular acidification rate in other cell types” value [2] of the same molecule?
**A.** reductions in oxygen consumption and concomitant increase in extracellular acidification rate

**Q.** And the “mitochondrial oxygen consumption in isolated mitochondria” value [3]?
**A.** had no effect

**Q.** And the EC50 [4]?
**A.** 1.41 ± 0.12 µM
